From paper PMC9127750, “Structure-based design of CDC42 effector interaction inhibitors for the treatment of cancer” (Cell reports, 2022)
Values joined by “and” are separate entries in the source; they are usually repeats but may differ in a detail not shown here. Equal values may be shown once.

Test system: WM3248 melanoma cells, 486 antibodies
Assay: Reverse phase protein arrays (RPPA)
Type: cell-based, Human
Excerpt: Pellets were snap frozen in liquid nitrogen and shipped to MD Anderson Cancer Center core RPPA facility for RPPA analysis (Table S5). Three biological replicates for each sample were generated.
Nomenclatures on the RPPA heatmaps: name_of_antibody.species_of_antibody.status_of_antibody. V - antibody validated; C - validation of antibody in progress; Q - antibody nonspecific; E – under evaluation; antibodies raised in M - mouse, G - goat, R - rabbit, or T - rat.

CN(C)c1cccc(Nc2cc(-c3ccccc3)nc(C3CCNCC3)n2)c1 [ARN22089, N1,N1-dimethyl-N3-(6-phenyl-2-(piperidin-4-yl)pyrimidin-4-yl)benzene-1,3-diamine] was tested, and the CRABP1.R.C normalized signal (Norm_10 replicates) was 0.873 and 1.131 and 0.976, the CRABP2.R.V normalized signal (Norm_10 replicates) was 0.772 and 1.150 and 0.822 and the CREB_pS133.R.C normalized signal (Norm_10 replicates) was 1.250 and 0.794 and 1.214. For the same compound, the CSK.R.C normalized signal (Norm_10 replicates) was 0.836, the Calnexin.R.V normalized signal (Norm_10 replicates) was 0.966 and 1.158 and 0.937 and the Caspase.3.cleaved.R.C normalized signal (Norm_10 replicates) was 1.008 and 0.891 and 0.879. For the same compound, the Caspase.7.cleaved..R.C normalized signal (Norm_10 replicates) was 0.971 and 1.258 and 0.862, the Caspase.8.M.Q normalized signal (Norm_10 replicates) was 0.852 and 1.055 and the Caspase.8.cleaved.R.C normalized signal (Norm_10 replicates) was 0.985 and 0.881 and 0.907. For the same compound, the Caveolin.1.R.V normalized signal (Norm_10 replicates) was 0.713 and 1.122 and 1.012, the Cdc6.R.V normalized signal (Norm_10 replicates) was 0.858 and 0.962 and the Cdc42.R.C normalized signal (Norm_10 replicates) was 0.895 and 1.029 and 0.973. The Chk1.M.C normalized signal (Norm_10 replicates) was 0.842 and 0.983 and 1.001, the Chk1_pS296.R.V normalized signal (Norm_10 replicates) was 1.115 and 0.789 and 0.942 and the Chk1_pS345.R.C normalized signal (Norm_10 replicates) was 1.171 and 0.894 and 0.992. The Chk2.M.V normalized signal (Norm_10 replicates) was 0.819 and 1.005, the Chk2_pT68.R.C normalized signal (Norm_10 replicates) was 1.200 and 0.766 and 0.922 and the Claudin.7.R.V normalized signal (Norm_10 replicates) was 0.930 and 1.663 and 1.163. The Collagen.VI.R.V normalized signal (Norm_10 replicates) was 1.420 and 0.935 and 0.899, the Complex.II.Subunit.M.V normalized signal (Norm_10 replicates) was 0.889 and 1.275 and the Connexin.43.R.C normalized signal (Norm_10 replicates) was 1.260 and 0.815. The Coup.TFII.R.C normalized signal (Norm_10 replicates) was 0.934 and 0.868, the Cox2.R.C normalized signal (Norm_10 replicates) was 1.023 and 1.193 and 0.953 and the Cox.IV.R.V normalized signal (Norm_10 replicates) was 0.958 and 0.990 and 0.892. The Creb.R.C normalized signal (Norm_10 replicates) was 1.051 and 0.927, the CtIP.R.V normalized signal (Norm_10 replicates) was 1.000 and 0.898 and 0.962 and the Cyclin.B1.R.V normalized signal (Norm_10 replicates) was 0.661 and 0.815 and 1.055. The Cyclin.D1.R.C normalized signal (Norm_10 replicates) was 0.958 and 1.081 and 0.985, the Cyclin.D3.M.V normalized signal (Norm_10 replicates) was 0.818 and 0.939 and the Cyclin.E1.R.V normalized signal (Norm_10 replicates) was 0.893. The Cyclophilin.F.M.V normalized signal (Norm_10 replicates) was 0.808 and 1.114 and 1.018, the D.a.Tubulin.R.V normalized signal (Norm_10 replicates) was 0.881 and 0.967 and 0.966 and the DAPK1_pS308.M.C normalized signal (Norm_10 replicates) was 1.302 and 1.636 and 2.488. The DAPK2.R.C normalized signal (Norm_10 replicates) was 0.965 and 1.028 and 0.953, the DDB.1.R.V normalized signal (Norm_10 replicates) was 0.974 and 0.680 and 0.815 and the DDR1.R.V normalized signal (Norm_10 replicates) was 1.019 and 1.079 and 0.961. For the same compound, the DDR1_pY513.R.C normalized signal (Norm_10 replicates) was 0.985 and 1.129 and 0.914, the DJ1.R.V normalized signal (Norm_10 replicates) was 0.990 and 1.026 and 0.974 and the DM.Histone.H3.R.V normalized signal (Norm_10 replicates) was 0.928 and 0.824. The DM.K9.Histone.H3.M.V normalized signal (Norm_10 replicates) was 0.889 and 1.013, the DNA.Ligase.IV.R.C normalized signal (Norm_10 replicates) was 0.935 and 0.869 and 1.008 and the DNA_POLG.R.V normalized signal (Norm_10 replicates) was 1.018 and 1.199 and 1.023. The c.Jun_pS73.R.V normalized signal (Norm_10 replicates) was 0.788 and 0.785 and 0.805, the c.Kit.R.V normalized signal (Norm_10 replicates) was 1.136 and 1.324 and the c.Met_pY1234_Y1235.R.V normalized signal (Norm_10 replicates) was 0.975 and 0.946 and 0.879. For the same compound, the c.Myc.R.C normalized signal (Norm_10 replicates) was 2.093 and 1.046, the cGAS.R.V normalized signal (Norm_10 replicates) was 0.953 and 1.217 and 0.956 and the cdc2_pY15.R.C normalized signal (Norm_10 replicates) was 1.104 and 0.582 and 0.878. For the same compound, the cdc25C.R.V normalized signal (Norm_10 replicates) was 0.721 and 0.808 and 1.017, the “MYH11.R.C Average” value (Norm_20, normalized to Norm_0) was 1.248 and the “Myosin.IIa.R.C Average” value (Norm_20, normalized to Norm_0) was 1.147. The “Myosin.IIa_pS1943.R.V Average” value (Norm_20, normalized to Norm_0) was 1.174, the “Myt1.R.C Average” value (Norm_20, normalized to Norm_0) was 0.994 and the “N.Cadherin.R.V Average” value (Norm_20, normalized to Norm_0) was 0.988. The “N.Ras.M.V Average” value (Norm_20, normalized to Norm_0) was 0.878, the “NAPSIN.A.R.C Average” value (Norm_20, normalized to Norm_0) was 1.011 and the “NDRG1_pT346.R.V Average” value (Norm_20, normalized to Norm_0) was 1.336. For the same compound, the “NDUFB4.R.V Average” value (Norm_20, normalized to Norm_0) was 1.022, the “NRF2.R.C Average” value (Norm_20, normalized to Norm_0) was 0.907 and the “Notch1.R.V Average” value (Norm_20, normalized to Norm_0) was 0.937. The “Notch1.cleaved.R.V Average” value (Norm_20, normalized to Norm_0) was 0.937, the “Notch3.R.C Average” value (Norm_20, normalized to Norm_0) was 0.994 and the “Oct.4.R.C Average” value (Norm_20, normalized to Norm_0) was 1.121. The “P.Cadherin.R.C Average” value (Norm_20, normalized to Norm_0) was 1.346, the “PAI.1.M.V Average” value (Norm_20, normalized to Norm_0) was 0.985 and the “PAICS.R.C Average” value (Norm_20, normalized to Norm_0) was 0.928. For the same compound, the “PAK1.R.V Average” value (Norm_20, normalized to Norm_0) was 0.872, the “PAK4.R.V Average” value (Norm_20, normalized to Norm_0) was 0.993 and the “PAK_pS474_S602_S560.R.V Average” value (Norm_20, normalized to Norm_0) was 1.208. For the same compound, the “PAR.R.C Average” value (Norm_20, normalized to Norm_0) was 2.108, the “PARG.R.C Average” value (Norm_20, normalized to Norm_0) was 1.394 and the “PARP.R.V Average” value (Norm_20, normalized to Norm_0) was 1.133. The “PAX6.R.V Average” value (Norm_20, normalized to Norm_0) was 0.967, the “PAX8.R.C Average” value (Norm_20, normalized to Norm_0) was 0.941 and the “PCNA.M.C Average” value (Norm_20, normalized to Norm_0) was 0.869. The “PD.1.R.V Average” value (Norm_20, normalized to Norm_0) was 0.984, the “PD.L1.R.C Average” value (Norm_20, normalized to Norm_0) was 0.970 and the “PDH.M.V Average” value (Norm_20, normalized to Norm_0) was 0.925. For the same compound, the “PDHA1.R.V Average” value (Norm_20, normalized to Norm_0) was 0.956, the “PDHK1.R.C Average” value (Norm_20, normalized to Norm_0) was 0.952 and the “PDK1.R.V Average” value (Norm_20, normalized to Norm_0) was 1.116. The “PDK1_pS241.R.V Average” value (Norm_20, normalized to Norm_0) was 0.965.
